Assay results reported in US9751888B2, “Heterocyclic compounds and uses thereof” (Infinity Pharmaceuticals, Inc., priority 2013, dated 2017).
pIC50: −log10 of the molar value.

Assays:
p110 γ (RAW264.7 cells) = p110 γ (RAW264.7 cells) (Mus musculus (Mouse), UniProt Q9JHG7); assay: PI3K-γ selective cellular assay: phospho-AKT in C5a stimulated RAW264.7 macrophages; format: cell-based; settings: serum-starved RAW264.7 cells stimulated with C5a
Protocol: Certain compounds provided herein were tested in RAW 264.7 cell model using procedures as described above.

[1] = target: human Class I PI3 kinase γ (Homo sapiens (Human), UniProt P48736); assay: PI3-Kinase Promega ADP-Glo Max assay, γ isoform; format: biochemical; settings: 40 nM kinase, 3 mM ATP, 500 uM diC8-PtdInsP; read-out: Promega γ PI3K IC50
Protocol: Promega ADP-Glo Max assay kit (Cat. No. V7002) was utilized to determine IC50 values for α, β, δ and γ isoforms of human Class I PI3 kinases (Millipore). Samples of kinase (20 nM α or δ, 40 nM β or γ isoform) were incubated with compound for 15 minutes at room temperature in reaction buffer (15 mM HEPES pH 7.4, 20 mM NaCl, 1 mM EGTA, 0.02% Tween 20, 10 mM MgCl2, 0.2 mg/mL bovine-γ-globulins) followed by addition of ATP/diC8-PtdInsP mixture to give final concentrations of 3 mM ATP and 500 uM diC8-PtdInsP. Reactions were incubated at room temperature for 2 hours followed by addition of 25 uL of stop solution. After a 40-minute incubation at room temperature, 50 uL of Promega detection mix was added followed by incubation for 1 hour at room temperature. Plates were then read on Envision plate reader in luminescence mode. Data was converted to % inhibition using the following equation below:
[formula] where S is the sample luminescence, Pos is a positive control without added PI3K, Neg is the negative control without added compound. Data was then plotted as % inhibition vs compound concentration.
Certain compounds provided herein were tested in PI3-Kinase Promega Assay using procedures as described above to determine IC50 values for α, β, δ and/or γ isoforms.

p110 δ (RAJI cells) = p110 δ (RAJI cells) (Homo sapiens (Human), UniProt O00329); assay: PI3K-δ selective cellular assay: phospho-AKT in anti-human IgM stimulated RAJI cells; format: cell-based; settings: serum-starved RAJI cells stimulated with anti-human IgM
p110 δ (RAJI cells), sequence (O00329 whole entry): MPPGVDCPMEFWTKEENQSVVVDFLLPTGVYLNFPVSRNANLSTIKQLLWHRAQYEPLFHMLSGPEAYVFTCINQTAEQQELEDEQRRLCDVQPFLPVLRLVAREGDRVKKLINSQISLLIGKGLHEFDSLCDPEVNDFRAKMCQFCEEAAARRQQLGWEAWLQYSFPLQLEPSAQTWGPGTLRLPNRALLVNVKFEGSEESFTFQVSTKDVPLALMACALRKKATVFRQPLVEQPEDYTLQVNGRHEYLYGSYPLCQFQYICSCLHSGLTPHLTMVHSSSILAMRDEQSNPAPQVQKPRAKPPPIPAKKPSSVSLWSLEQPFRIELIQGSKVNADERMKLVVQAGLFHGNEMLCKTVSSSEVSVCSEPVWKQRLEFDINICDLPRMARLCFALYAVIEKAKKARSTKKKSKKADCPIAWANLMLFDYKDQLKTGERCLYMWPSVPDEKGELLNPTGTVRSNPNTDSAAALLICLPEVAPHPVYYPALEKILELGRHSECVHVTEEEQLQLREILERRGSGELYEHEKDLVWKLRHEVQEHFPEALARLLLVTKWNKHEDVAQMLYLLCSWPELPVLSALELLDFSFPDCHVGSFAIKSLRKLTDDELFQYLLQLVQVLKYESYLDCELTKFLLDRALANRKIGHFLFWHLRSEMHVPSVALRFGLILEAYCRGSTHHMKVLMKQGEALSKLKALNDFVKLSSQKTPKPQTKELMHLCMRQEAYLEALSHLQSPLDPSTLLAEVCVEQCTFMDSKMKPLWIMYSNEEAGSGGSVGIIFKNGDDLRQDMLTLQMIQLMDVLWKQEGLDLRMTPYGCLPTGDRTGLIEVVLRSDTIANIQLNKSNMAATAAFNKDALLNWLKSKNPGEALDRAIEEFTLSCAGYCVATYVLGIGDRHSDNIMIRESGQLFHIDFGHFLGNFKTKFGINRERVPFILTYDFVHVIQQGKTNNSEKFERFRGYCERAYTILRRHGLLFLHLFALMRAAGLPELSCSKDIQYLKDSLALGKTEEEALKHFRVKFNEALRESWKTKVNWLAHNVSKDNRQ
p110 δ (RAJI cells), sequence (P27986 whole entry partner): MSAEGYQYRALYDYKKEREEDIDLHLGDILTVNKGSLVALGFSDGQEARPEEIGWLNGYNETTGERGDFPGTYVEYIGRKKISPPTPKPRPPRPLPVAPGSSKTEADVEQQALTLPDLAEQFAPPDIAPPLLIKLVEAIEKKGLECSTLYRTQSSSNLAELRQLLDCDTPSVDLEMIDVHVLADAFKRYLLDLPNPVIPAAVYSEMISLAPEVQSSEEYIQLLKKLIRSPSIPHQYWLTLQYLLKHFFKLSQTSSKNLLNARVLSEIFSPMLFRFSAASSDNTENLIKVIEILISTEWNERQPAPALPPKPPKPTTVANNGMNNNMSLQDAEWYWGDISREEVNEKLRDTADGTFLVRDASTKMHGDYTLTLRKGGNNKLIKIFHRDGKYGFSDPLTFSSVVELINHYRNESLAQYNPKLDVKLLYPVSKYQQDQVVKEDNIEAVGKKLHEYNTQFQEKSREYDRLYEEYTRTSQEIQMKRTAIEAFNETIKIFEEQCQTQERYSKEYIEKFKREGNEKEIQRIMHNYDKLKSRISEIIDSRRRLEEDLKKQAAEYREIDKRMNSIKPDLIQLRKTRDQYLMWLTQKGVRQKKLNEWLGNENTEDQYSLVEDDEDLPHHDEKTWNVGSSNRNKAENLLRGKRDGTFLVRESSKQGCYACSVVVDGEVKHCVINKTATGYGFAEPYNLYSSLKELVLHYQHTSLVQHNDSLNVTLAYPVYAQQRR
Source text: A compound's ability in selectively inhibiting PI3K-δ can be assessed using RAJI cells, i.e., B lymphocyte cells derived from lymphoma patients. Briefly, serum-starved RAJI cells are stimulated with anti-human IgM, thereby causing signaling through the B-cell receptors, as described in, for example, He et al., Leukemia Research (2009) 33: 798-802. B-cell receptor signaling is important for the activation, differentiation, and survival of B cells and certain B-cell derived cancers. Reduction of phospho-AKT is indicative of compounds that may inhibit B-cell proliferation and function in certain diseases. […] Certain compounds provided herein were tested in RAJI cell model using procedures as described above.

[2] = target: human Class I PI3 kinase δ (Homo sapiens (Human), UniProt O00329); assay: PI3-Kinase Promega ADP-Glo Max assay, δ isoform; format: biochemical; settings: 20 nM kinase, 3 mM ATP, 500 uM diC8-PtdInsP; read-out: Promega δ PI3K IC50
human Class I PI3 kinase δ, sequence (O00329 whole entry, canonical isoform): as the sequence (O00329 whole entry) above
human Class I PI3 kinase δ, sequence (P27986 whole entry partner, canonical isoform): as the sequence (P27986 whole entry partner) above
Protocol: (§1) Promega ADP-Glo Max assay kit (Cat. No. V7002) was utilized to determine IC50 values for α, β, δ and γ isoforms of human Class I PI3 kinases (Millipore). […] Reactions were incubated at room temperature for 2 hours followed by addition of 25 uL of stop solution. After a 40-minute incubation at room temperature, 50 uL of Promega detection mix was added followed by incubation for 1 hour at room temperature. Plates were then read on Envision plate reader in luminescence mode. Data was converted to % inhibition using the following equation below: [formula] where S is the sample luminescence, Pos is a positive control without added PI3K, Neg is the negative control without added compound. Data was then plotted as % inhibition vs compound concentration.

[3] = target: human Class I PI3 kinase β (Homo sapiens (Human), UniProt P42338); assay: PI3-Kinase Promega ADP-Glo Max assay, β isoform; format: biochemical; settings: 40 nM kinase, 3 mM ATP, 500 uM diC8-PtdInsP; read-out: Promega β PI3K IC50
human Class I PI3 kinase β, sequence (P42338 whole entry, looked up, canonical isoform): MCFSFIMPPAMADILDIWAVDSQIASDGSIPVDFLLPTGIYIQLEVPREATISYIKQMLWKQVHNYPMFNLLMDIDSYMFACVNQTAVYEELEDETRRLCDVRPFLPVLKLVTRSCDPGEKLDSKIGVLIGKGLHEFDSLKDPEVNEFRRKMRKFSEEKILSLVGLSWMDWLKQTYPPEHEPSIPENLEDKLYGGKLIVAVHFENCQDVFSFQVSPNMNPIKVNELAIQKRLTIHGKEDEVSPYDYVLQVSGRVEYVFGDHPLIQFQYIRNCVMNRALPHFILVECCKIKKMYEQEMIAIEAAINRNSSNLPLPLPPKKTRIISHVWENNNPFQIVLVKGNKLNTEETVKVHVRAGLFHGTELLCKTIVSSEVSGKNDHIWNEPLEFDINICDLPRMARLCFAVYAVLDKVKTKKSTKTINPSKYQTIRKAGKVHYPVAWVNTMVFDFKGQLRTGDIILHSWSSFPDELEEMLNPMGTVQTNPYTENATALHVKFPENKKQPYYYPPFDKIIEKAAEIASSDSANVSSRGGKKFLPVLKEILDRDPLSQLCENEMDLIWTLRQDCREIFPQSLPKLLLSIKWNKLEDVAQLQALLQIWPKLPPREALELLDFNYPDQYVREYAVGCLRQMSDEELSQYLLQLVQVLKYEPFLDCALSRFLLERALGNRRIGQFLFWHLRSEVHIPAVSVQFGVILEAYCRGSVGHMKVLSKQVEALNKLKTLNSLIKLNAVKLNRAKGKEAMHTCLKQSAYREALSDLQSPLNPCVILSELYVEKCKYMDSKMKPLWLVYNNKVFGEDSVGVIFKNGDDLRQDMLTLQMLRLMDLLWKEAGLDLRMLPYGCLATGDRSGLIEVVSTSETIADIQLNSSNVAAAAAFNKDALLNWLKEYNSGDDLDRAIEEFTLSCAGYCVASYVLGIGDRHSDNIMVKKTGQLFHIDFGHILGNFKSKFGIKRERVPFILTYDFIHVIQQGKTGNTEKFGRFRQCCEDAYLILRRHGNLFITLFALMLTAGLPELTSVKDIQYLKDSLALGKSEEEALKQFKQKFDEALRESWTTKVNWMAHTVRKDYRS
human Class I PI3 kinase β, sequence (P27986 whole entry partner, looked up, canonical isoform): as the sequence (P27986 whole entry partner) above
Protocol: Promega ADP-Glo Max assay kit (Cat. No. V7002) was utilized to determine IC50 values for α, β, δ and γ isoforms of human Class I PI3 kinases (Millipore). […] Reactions were incubated at room temperature for 2 hours followed by addition of 25 uL of stop solution. After a 40-minute incubation at room temperature, 50 uL of Promega detection mix was added followed by incubation for 1 hour at room temperature. Plates were then read on Envision plate reader in luminescence mode. Data was converted to % inhibition using the following equation below:

[4] = target: human Class I PI3 kinase α (Homo sapiens (Human), UniProt P42336); assay: PI3-Kinase Promega ADP-Glo Max assay, α isoform; format: biochemical; settings: 20 nM kinase, 3 mM ATP, 500 uM diC8-PtdInsP; read-out: Promega α PI3K IC50
human Class I PI3 kinase α, sequence (P42336 whole entry, canonical isoform): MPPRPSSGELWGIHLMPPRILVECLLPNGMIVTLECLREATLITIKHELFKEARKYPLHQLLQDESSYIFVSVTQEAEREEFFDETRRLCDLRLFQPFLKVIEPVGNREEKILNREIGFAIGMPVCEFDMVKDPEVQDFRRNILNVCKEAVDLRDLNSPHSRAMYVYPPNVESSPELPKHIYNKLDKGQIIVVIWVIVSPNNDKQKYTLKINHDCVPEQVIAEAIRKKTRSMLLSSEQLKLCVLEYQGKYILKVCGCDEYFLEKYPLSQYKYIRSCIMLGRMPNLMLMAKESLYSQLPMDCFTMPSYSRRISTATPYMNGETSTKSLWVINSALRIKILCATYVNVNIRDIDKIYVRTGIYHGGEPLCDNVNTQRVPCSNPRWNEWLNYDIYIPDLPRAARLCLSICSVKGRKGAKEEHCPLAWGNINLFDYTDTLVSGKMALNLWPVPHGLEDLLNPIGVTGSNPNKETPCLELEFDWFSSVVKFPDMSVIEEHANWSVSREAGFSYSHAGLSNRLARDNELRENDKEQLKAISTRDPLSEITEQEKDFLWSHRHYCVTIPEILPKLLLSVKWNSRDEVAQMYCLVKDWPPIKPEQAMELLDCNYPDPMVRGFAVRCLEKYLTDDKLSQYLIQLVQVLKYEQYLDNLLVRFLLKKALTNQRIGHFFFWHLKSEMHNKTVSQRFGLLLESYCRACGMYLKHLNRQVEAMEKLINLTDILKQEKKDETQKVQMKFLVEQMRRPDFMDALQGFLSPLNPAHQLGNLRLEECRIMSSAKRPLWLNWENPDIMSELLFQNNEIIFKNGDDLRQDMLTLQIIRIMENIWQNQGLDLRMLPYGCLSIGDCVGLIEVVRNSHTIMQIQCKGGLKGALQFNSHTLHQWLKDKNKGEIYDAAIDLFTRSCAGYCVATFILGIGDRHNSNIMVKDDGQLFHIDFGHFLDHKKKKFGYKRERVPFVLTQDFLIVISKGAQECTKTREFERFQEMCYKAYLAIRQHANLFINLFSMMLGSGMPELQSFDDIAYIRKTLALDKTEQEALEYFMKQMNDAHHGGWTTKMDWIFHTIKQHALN
human Class I PI3 kinase α, sequence (P27986 whole entry partner, canonical isoform): as the sequence (P27986 whole entry partner) above
Protocol: as §1

| SMILES | pIC50 (p110 γ (RAW264.7 cells)) | pIC50 [1] | pIC50 (p110 δ (RAJI cells)) | pIC50 [2] | pIC50 [3] | pIC50 [4] |
| --- | --- | --- | --- | --- | --- | --- |
| C[C@H](NC(=O)c1c(N)nn2cccnc12)c1nc2cccc(Cl)c2c(=O)n1-c1ccc(F)cc1 [Compound 45] | 8.00 to 9.00 | 7.00 to 8.00 | 7.00 to 8.00 | 5.00 to 6.00 | 5.00 to 6.00 | 5.00 to 6.00 |
| C[C@H](NC(=O)c1c(N)nn2cccnc12)c1cc2cccc(Cl)c2c(=O)n1-c1ccc(NS(C)(=O)=O)cc1 [Compound 81] | 5.00 to 6.00 | 5.00 to 6.00 | 6.30 to 7.00 | 5.00 to 6.00 | 6.00 to 6.30 | 5.00 to 6.00 |
| C[C@H](NC(=O)c1c(N)nn2cccnc12)c1cc2cccc(Cl)c2c(=O)n1CCS(N)(=O)=O [Compound 19] | 7.00 to 8.00 | 7.00 to 8.00 | 7.00 to 8.00 | 5.00 to 6.00 | 6.30 to 7.00 | 5.00 to 6.00 |
| C[C@H](NC(=O)c1c(N)nn2cccnc12)c1cc2cccc(Cl)c2c(=O)n1CCc1c[nH]cn1 [Compound 21] | – | 5.00 to 6.00 | – | 5.00 to 6.00 | 6.30 to 7.00 | 5.00 to 6.00 |
| C[C@H](NC(=O)c1c(N)nn2cccnc12)c1cc2cccc(Cl)c2c(=O)n1C1CC(NS(C)(=O)=O)C1 (stereo partly shown) [Compound 72] | 6.30 to 7.00 | 5.00 to 6.00 | 7.00 to 8.00 | 5.00 to 6.00 | 6.30 to 7.00 | 5.00 to 6.00 |
| C[C@H](NC(=O)c1c(N)nn2cccnc12)c1cc2cccc(Cl)c2c(=O)n1CCCNS(C)(=O)=O [Compound 53] | 6.30 to 7.00 | 7.00 to 8.00 | 8.00 to 9.00 | 6.30 to 7.00 | 7.00 to 8.00 | 6.00 to 6.30 |
| C[C@H](NC(=O)c1c(N)nn2cccnc12)c1cc2cccc(-c3cnn(CC(F)(F)F)c3)c2c(=O)n1-c1ccccc1 [Compound 50] | 7.00 to 8.00 | 6.30 to 7.00 | 6.30 to 7.00 | 5.00 to 6.00 | 5.00 to 6.00 | 5.00 to 6.00 |
| CNS(=O)(=O)CCn1c([C@H](C)NC(=O)c2c(N)nn3cccnc23)cc2cccc(Cl)c2c1=O [Compound 54] | 7.00 to 8.00 | 7.00 to 8.00 | 7.00 to 8.00 | 6.30 to 7.00 | 6.30 to 7.00 | 5.00 to 6.00 |
| C[C@H](NC(=O)c1c(N)nn2cccnc12)c1cc2cccc(Cl)c2c(=O)n1-c1cccc(NS(C)(=O)=O)c1 [Compound 79] | 6.30 to 7.00 | 6.30 to 7.00 | 7.00 to 8.00 | 6.00 to 6.30 | 6.30 to 7.00 | 5.00 to 6.00 |
| C[C@H](NC(=O)c1c(N)nn2cccnc12)c1cc2cccc(Cl)c2c(=O)n1CCc1ncn[nH]1 [Compound 20] | 5.00 to 6.00 | 6.00 to 6.30 | 7.00 to 8.00 | 5.00 to 6.00 | 6.00 to 6.30 | 5.00 to 6.00 |
| CC(=O)Cc1cccc2nc([C@H](C)NC(=O)c3c(N)nn4cccnc34)n(-c3ccccc3)c(=O)c12 [Compound 89] | 7.00 to 8.00 | 6.00 to 6.30 | 6.30 to 7.00 | 6.00 to 6.30 | 5.00 to 6.00 | 5.00 to 6.00 |
| Cc1ccnc2c(C(=O)N[C@@H](C)c3cc4cccc(Cl)c4c(=O)n3-c3ccccc3)c(N)nn12 [Compound 82] | 7.00 to 8.00 | 6.00 to 6.30 | 7.00 to 8.00 | 5.00 to 6.00 | 5.00 to 6.00 | 5.00 to 6.00 |
| C[C@H](NC(=O)c1c(N)nn2cccnc12)c1cc2cccc(Cl)c2c(=O)n1CCc1nnn[nH]1 [Compound 16] | 6.00 to 6.30 | 7.00 to 8.00 | 5.00 to 6.00 | 5.00 to 6.00 | 5.00 to 6.00 | 5.00 to 6.00 |
| C[C@H](NC(=O)c1nccnc1N)c1nc2cccc(Cl)c2c(=O)n1-c1ccc(F)cc1 [Compound 46] | 7.00 to 8.00 | 6.30 to 7.00 | 8.00 to 9.00 | 5.00 to 6.00 | 5.00 to 6.00 | 5.00 to 6.00 |
| C[C@H](NC(=O)c1c(N)nn2cccnc12)c1cc2cccc(Cl)c2c(=O)n1CCCS(C)(=O)=O [Compound 57] | 6.30 to 7.00 | 6.30 to 7.00 | 6.30 to 7.00 | 5.00 to 6.00 | 6.30 to 7.00 | 5.00 to 6.00 |
| C[C@H](NC(=O)c1c(N)nn2cccnc12)c1cc2cccc(Cl)c2c(=O)n1-c1cccnc1 [Compound 76] | 7.00 to 8.00 | 6.30 to 7.00 | 6.30 to 7.00 | 5.00 to 6.00 | 6.00 to 6.30 | 5.00 to 6.00 |
| CCS(=O)(=O)NCCn1c([C@H](C)NC(=O)c2c(N)nn3cccnc23)cc2cccc(Cl)c2c1=O [Compound 61] | 6.30 to 7.00 | 7.00 to 8.00 | 7.00 to 8.00 | 6.30 to 7.00 | 6.30 to 7.00 | 5.00 to 6.00 |
| C[C@H](NC(=O)c1c(N)nn2cccnc12)c1cc2cccc(-c3cnn(CC#N)c3)c2c(=O)n1-c1ccccc1 [Compound 48] | 7.00 to 8.00 | 6.30 to 7.00 | 6.30 to 7.00 | 5.00 to 6.00 | 5.00 to 6.00 | 5.00 to 6.00 |
| C[C@H](NC(=O)c1c(N)nn2cccnc12)c1cc2cccc(OCC(F)(F)F)c2c(=O)n1-c1ccccc1 [Compound 86] | 6.30 to 7.00 | 5.00 to 6.00 | 5.00 to 6.00 | 5.00 to 6.00 | 5.00 to 6.00 | 5.00 to 6.00 |
| Cc1ccc(-n2c([C@H](C)NC(=O)c3c(N)nn4cccnc34)cc3cccc(Cl)c3c2=O)cc1 [Compound 75] | 7.00 to 8.00 | 6.30 to 7.00 | 7.00 to 8.00 | 5.00 to 6.00 | 5.00 to 6.00 | 5.00 to 6.00 |
| Cc1ccccc1-n1c([C@H](C)NC(=O)c2c(N)nn3cccnc23)cc2cccc(Cl)c2c1=O [Compound 73] | 8.00 to 9.00 | 6.30 to 7.00 | 7.00 to 8.00 | 6.00 to 6.30 | 6.30 to 7.00 | 5.00 to 6.00 |
| C[C@H](NC(=O)c1c(N)nn2cccnc12)c1nc2ccc(Cl)cc2c(=O)n1-c1ccccc1 [Compound 88] | – | 5.00 to 6.00 | – | 5.00 to 6.00 | 5.00 to 6.00 | 5.00 to 6.00 |
| C[C@H](NC(=O)c1c(N)nn2cccnc12)c1cc2cccc(CC(=O)C(C)(C)C)c2c(=O)n1-c1ccccc1 [Compound 94] | 6.30 to 7.00 | 5.00 to 6.00 | 6.00 to 6.30 | 5.00 to 6.00 | 5.00 to 6.00 | 5.00 to 6.00 |
| C[C@H](NC(=O)c1c(N)nn2cccnc12)c1cc2cccc(Cl)c2c(=O)n1CCc1nnnn1C [Compound 55] | 6.30 to 7.00 | 6.30 to 7.00 | 7.00 to 8.00 | 5.00 to 6.00 | 6.30 to 7.00 | 5.00 to 6.00 |
| C[C@H](NC(=O)c1c(N)nn2cccnc12)c1cc2cccc(Cl)c2c(=O)n1C1CCC1 [Compound 71] | 7.00 to 8.00 | 5.00 to 6.00 | 7.00 to 8.00 | 5.00 to 6.00 | 6.00 to 6.30 | 5.00 to 6.00 |
| C[C@H](NC(=O)c1nccnc1N)c1oc2ccc(F)cc2c(=O)c1-c1ccccc1 [Compound 97] | – | 5.00 to 6.00 | – | 5.00 to 6.00 | 5.00 to 6.00 | 5.00 to 6.00 |
| C[C@H](NC(=O)c1nc(C2CC2)cnc1N)c1cc2cccc(Cl)c2c(=O)n1-c1ccccc1 [Compound 3] | – | 5.00 to 6.00 | – | 5.00 to 6.00 | 5.00 to 6.00 | 5.00 to 6.00 |
| C[C@H](NC(=O)c1c(N)nn2cccnc12)c1cc2cccc(CCc3cnn(C)c3)c2c(=O)n1-c1ccccc1 [Compound 66] | 8.00 to 9.00 | 6.00 to 6.30 | 7.00 to 8.00 | – | – | – |
